This experiment deals with caspase 1. Kind of experiment: Caspase 1 activity assay in PMA-differentiated THP1 cells treated with LPS and ATP. The conditions noted are these: for caspase 1 activity: peptide 50 μM for 60 min before LPS (1 μg/mL) and ATP (5 mM), THP1 cells. In kind it is cell-based, human. Here is the method:
THP1-null (THP1) cells were plated at a final concentration of 1×10^6/mL in 96 well plates and incubated with PMA (0.5 μM) for 3 hours 37° C. in supplemented RPMI. Media was subsequently changed every 24 hours for 3 days. Various subsets of wells were selected and cells were treated for 60 minutes at 37° C. in serum-free RPMI with: (A) APC (4 μg/mL), TR47 (50 μM-2 nM), scrTR47 (50 μM), SFLLRN (50 μM), TFLLRN (50 μM); (B) P3R (50 μM-500 nM), P3K (50 μM); (C) APC (4 or 1 μg/mL), TR47 (8 nM), P3R (500 nM) or TR47+P3R (8 nM and 500 nM, respectively); (D) TR47 (0-128 nM) (●)±P3R (500 nM) (□); (E) P3R (0-500 nM) (●)±TR47 (1 nM) (□). Following DPBS wash, cells were incubated with LPS (1 μg/mL) for 3 hours at 37° C. in serum-free RPMI. After a DPBS wash, cells were incubated with ATP (5 mM) in the presence or absence of 10 μM YVAD (caspase 1 inhibitor) or 2.5 μM ZVAD (pan-caspase inhibitor) for 45 minutes at 37° C., prior to performing the caspase 1 activity assay following manufacturer's directions measuring luminescence (relative luminescent units, RLU). (D & E) Experimental caspase 1 activity was normalized to YVAD (caspase 1 inhibitor) luminescence units. (A-E) Data points represent mean±S.D. of at least 3 independent experiments. *P<0.05 (vs. LPS+ATP); #P<0.05 (vs. LPS+ATP & APC, TR47 or P3R); **P<0.005 (vs. LPS+ATP & TR47+500 nM P3R); n.s. not significant.
THP1 cells were plated at a final concentration of 1×10^6/mL in 96 well plates and incubated with PMA (0.5 μM) for 3 hours 37° C. in supplemented RPMI. Media was subsequently changed every 24 hours for 3 days. Selected wells were treated with APC (4 μg/mL), (A) 50 μM or (B) 2 μM of P3R, P3Rm, P3R 51-65, P3R 51-59, P3R 54-59 or P3R 59-65 for 1 hour, washed with DPBS, and incubated with LPS (1 μg/mL) for 3 hours at 37° C. in serum-free RPMI. Cells were washed with DPBS and incubated with ATP (5 mM) in the presence or absence of 10 μM YVAD (caspase 1 inhibitor; C1i) or 2.5 μM ZVAD (pan-caspase inhibitor; pCi) for 45 minutes at 37° C., prior to performing the caspase 1 activity assay following manufacturer's directions measuring luminescence (relative luminescent units, RLU). (C) Diagram showing the PAR3 sequence, peptide sequences and relative (anti-inflammatory) activity. These include sequences of P3R (SEQ ID NO:4), P3Rm (SEQ ID NO:8), P3R 51-65 (SEQ ID NO:9), P3R 51-59 (SEQ ID NO:10), P3R 54-59 (SEQ ID NO:54) and P3R 59-65 (SEQ ID NO:55).
THP1 cells were plated at a final concentration of 1×10^6/mL in 96 well plates and incubated with PMA (0.5 μM) for 3 hours 37° C. in supplemented RPMI. Media was subsequently changed every 24 hours for 3 days. Selected wells were treated with APC (4 μg/mL), TR47, in (A) 9-mer (TR47 9-mer; NPNDKYEPF (SEQ ID NO:36)) or Ac-TR47 (Acylated TR47) at either 50 μM or 10 nM or (B) 50 μM of 16-mer-TR47, 8-mer-TR47, 6-mer-TR47, TR47 N−1, TR47 N−2, TR47 N−5, TR47AQ, TR47AD, TR47AA or TR48-54 for 1 hour, washed with DPBS, and incubated with LPS (1 μg/mL) for 3 hours at 37° C. in serum-free RPMI. Cells were washed with DPBS and incubated with ATP (5 mM) in the presence or absence of 10 μM YVAD (caspase 1 inhibitor; C1i) or 2.5 μM ZVAD (pan-caspase inhibitor; pCi) for 45 minutes at 37° C., prior to performing the caspase 1 activity assay following manufacturer's directions measuring luminescence (relative luminescent units, RLU). #P<0.001 (vs. LPS+ATP), **P<0.005 (vs. LPS+ATP), * (P<0.05 vs. LPS+ATP). (C) Diagram showing the PAR1 sequence, peptide sequences and relative (anti-inflammatory) activity. These include sequences of TR47 (SEQ ID NO:7), Ac-TR47 (SEQ ID NO:56), 16-mer-TR47 (SEQ ID NO:43), 9-mer-TR47 (SEQ ID NO:36), 8-mer-TR47 (SEQ ID NO:35), 6-mer-TR47 (SEQ ID NO:33), TR47 N−1 (SEQ ID NO:47), TR47 N−2 (SEQ ID NO:51), TR47 N−5 (SEQ ID NO:48), TR47AQ (SEQ ID NO:49), TR47AD (SEQ ID NO:52), TR47AA (SEQ ID NO:50) and TR48-54 (SEQ ID NO:53). […]

“Also recorded” adds a separate entry of the source.

“GAPPNSFEEFPFSALEGWTGATIT [P3R, PAR3-derived 24-mer peptide]”: the “caspase 1 activity” value is “reduced caspase 1 activity; also recorded: a significant reduction in caspase 1 activity was observed”. Moreover, under “P3R at ≤500 nM with 1 nM TR47”, the “normalized caspase 1 activity” value was “a significant reduction in normalized caspase 1 activity was observed”.
Regarding “NPNDKYEPFWEDEEKNESGL [TR47, PAR1-derived 20 amino acid peptide]”, the “caspase 1 activity” value is “similarly reduced caspase 1 activity”. Further, the “caspase 1 activity normalized to caspase 1 inhibited conditions” value (TR47 at <10 nM in the presence of 500 nM P3R) is given as “a reduction in caspase 1 activity was observed”.

The record behind these values is patent US20220313780A1, “METHODS AND COMPOSITIONS FOR TREATING INFLAMMATORY CONDITIONS” (THE SCRIPPS RESEARCH INSTITUTE, priority 2019, published 2022).
